Each structure is given as a SMILES string.

The subject of the assay is S. aureus UC ® 9213. Put plainly: In vivo murine assay, ED50 against S. aureus UC 9213 infection (survival, female mice). To be noted: Staphylococcus aureus, UC9213, 144 h; PO; female mice infected intraperitoneally; dosed one and five hours after infection, six dose levels; survival six days, probit analysis; read-out: ED50 (mg/kg), Example, PO. As for the experimental part: Antimicrobial activity was tested in vivo using a Murine Assay procedure. Groups of female mice were injected intraperitoneally with bacteria which were thawed just prior to use and suspended in brain heart infusion with 4% Brewer's yeast UC9213 (Staphylococcus aureus) or brain hear infusion (Streptococcus species). Antibiotic treatment a six dose levels per drug was administered on hour and five hours after infection by either oral or subcutaneous routes. Survival was observed daily for six days. ED50 values based on mortality ratios were calculated using probit analysis. The subject compounds were compared against a well-known antibacterial (Vancomycin) as a control.
In Vivo Activity Against S. aureus UC ® 9213
Take `CC(=O)NC[C@H]1CN(c2ccc(N3C[C@@H]4C[C@H]3CO4)c(F)c2)C(=O)O1` [Example 1, (S)-N-[[3-[4-[(1S,4S)-2-oxa-5-azabicyclo[2.2.1]heptan-5-yl]-3-fluorophenyl]-2-oxo-5-oxazolikinyl]methyl]acetamide]: the ED50 amounted to 7.7 mg/kg.

Consider `CC(=O)NC[C@H]1CN(c2ccc(N3C[C@@H]4C[C@H]3CS4)c(F)c2)C(=O)O1` [Example 2, (S)-N-[[3-[3-fluoro-4-[(1S,4S)-2-thia-5-azabicyclo[2.2.1]heptan-5-yl]-phenyl]-2-oxo-5-oxazolidinyl]methyl]acetamide], for which the ED50 amounted to 4.2 mg/kg.

For the compound `CC(=O)NC[C@H]1CN(c2ccc(N3C[C@H]4CSC[C@H]4C3)c(F)c2)C(=O)O1` [Example 4, (S)-N-[[3-[3-fluoro-4-(tetrahydro-1H-thieno[3,4-c]pyrrol-5(3H)-yl)phenyl]-2-oxo-5-oxazolidinyl]methyl]acetamide], the ED50 is 4.3 mg/kg.

As to `CC(=O)NC[C@H]1CN(c2ccc(N3C[C@@H]4C[S+]([O-])C[C@@H]4C3)c(F)c2)C(=O)O1` (stereo partly drawn) [Example 5, (S)-N-[[3-[3-fluoro-4-(tetrahydro-1H-thieno[3,4-c]pyrrol-5(3H)-yl)phenyl]-2-oxo-5-oxazolidinyl]methyl]acetamide, S-oxide], the ED50 worked out at 10 mg/kg.

Take `CC(=O)NC[C@H]1CN(c2ccc(N3C[C@@H]4CS(=O)(=O)C[C@@H]4C3)c(F)c2)C(=O)O1` [Example 6, (S)-N-[[3-[3-fluoro-4-(tetrahydro-1H-thieno[3,4-c]pyrrol-5(3H)-yl)phenyl]-2-oxo-5-oxazolidinyl]methyl]acetamide, S,S-dioxide]: the ED50 came to 3.5 mg/kg.
